The text below walks through data of article PMC6496756, “Zerumbone, a cyclic sesquiterpene, exerts antimitotic activity in HeLa cells through tubulin binding and exhibits synergistic activity with vinblastine and paclitaxel” (Cell Proliferation, 2018).

Broadly, the Kd is the free concentration of one partner at which half of the binding sites on the other are occupied at equilibrium, for simple one-to-one binding. A higher Kd goes with lower affinity.

This assay concerns the target T1, tubulin (alpha/beta heterodimer).
T1 construct: purified goat brain tubulin; with alpha-tubulin/beta-tubulin heterodimer
The assay can be described thus: intrinsic tryptophan fluorescence quenching; also competition with colchicine and inhibition of tubulin polymerization. Type of assay: binding, Capra hircus.

In turn, `C/C1=C\CC(C)(C)/C=C/C(=O)/C(C)=C/CC1` [zerumbone, (2E,6E,10E)‐2,6,9,9‐tetramethylcycloundeca‐2,6,10‐trien‐1‐one] came in with a Kd of 4 µM.
